Measurements taken from patent US10829520B2, “Beta-hairpin peptidomimetics” (POLYPHOR AG, priority 2015, dated 2020).
*1 amine or outer side, *2 acyl side, *3 side chain or, on linkers, in order; H or OH if unused. Where a SMILES comes first, the peptide text is derived from it. Bridges are numbered along the chain shown (N, C = ends). [ ]: non-standard residue; d: D form. The star is where a group is joined. NαAmidinoTrp = N=C(N)N[C@@H](Cc1c[nH]c2ccccc12)C(=O)*; X1 = CC(C)NC[C@H](N[*:1])C(=O)[*:2]; Cha = N[C@@H](CC1CCCCC1)C(=O)O; Tle = CC(C)(C)[C@H](N)C(=O)O; dDab = NCC[C@@H](N)C(=O)O; Nle = CCCC[C@H](N)C(=O)O; Orn = NCCC[C@H](N)C(=O)O; Dab = NCC[C@H](N)C(=O)O; Dap = NC[C@H](N)C(=O)O; Sar = CNCC(=O)O

Tests used:
Format in all cases: cell-based
[1] = system: human red blood cells (hRBC); assay: Hemolysis of human red blood cells; details: red cells of human, 1 h, 100 μg/mL
Procedure, shortened: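 Peptides at 100 μg/mL were incubated with PBS-washed fresh human erythrocytes (20% v/v, ~0.9×10^9 cells/mL final) for 1 h at 37° C. with shaking. Supernatant OD540 was read after 8-fold dilution; percent hemolysis was expressed relative to the 2.5% Triton X-100 full-lysis control, with PBS/0.001% acetic acid as 0%.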

[2] = system: Klebsiella pneumoniae SSI #3010; details: SSI #3010
Procedure, shortened: (§1)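 Broth microdilution per CLSI, cation-adjusted MH-II medium, 0.002% (v/v) polysorbate 80 final. Approx. 10^6 CFU/mL inoculum, incubated 35° C for 18-20 h; MIC read as absence of visible growth.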

[3] = system: Escherichia coli ATCC 25922; details: ATCC 25922
Procedure, shortened: as §1

[4] = system: Acinetobacter baumannii DSM 30008; details: DSM 30008
Procedure, shortened: as §1

[5] = system: Klebsiella pneumoniae 968733; details: 968733
[6] = system: Pseudomonas aeruginosa ATCC 27853; details: ATCC 27853
Procedure, shortened: as §1

Escherichia coli 926415 = details: 926415
[7] = system: Acinetobacter baumannii 872842; details: 872842

SMILES	Hemolysis at 100 μg/mL [1] [%]	Klebsiella pneumoniae SSI #3010 MIC [2] [µg/mL]	Escherichia coli ATCC 25922 MIC [3] [µg/mL]	Acinetobacter baumannii DSM 30008 MIC [4] [µg/mL]	Klebsiella pneumoniae 968733 MIC [5] [µg/mL]	Pseudomonas aeruginosa ATCC 27853 MIC [6] [µg/mL]	Escherichia coli 926415 MIC (Escherichia coli 926415) [µg/mL]	Acinetobacter baumannii 872842 MIC [7] [µg/mL]
CC(C)C[C@@H]1NC(=O)[C@@H](CC(C)C)NC(=O)[C@H](CCN)NC(=O)[C@@H](NC(=O)[C@H](CCN)NC(=O)[C@@H](NC(=O)[C@H](CCN)NC(=O)[C@@H](C)NC(=O)[C@@H]2CSSC[C@H](NC(=O)[C@H](Cc3c[nH]c4ccccc34)NC(=N)N)C(=O)N[C@@H](C(C)C)C(=O)N[C@@H](C)C(=O)N[C@@H](CO)C(=O)N3CCC[C@@H]3C(=O)N3CCC[C@H]3C(=O)N[C@@H](CC(C)C)C(=O)N[C@@H](CO)C(=O)N[C@@H](Cc3ccc(O)cc3)C(=O)N2)[C@@H](C)O)CCNC(=O)[C@H]([C@@H](C)O)NC(=O)[C@H](CCN)NC(=O)[C@H](CCN)NC1=O [Ex. 135] (NαAmidinoTrp-CVAS[dP]PLSYC[dA][Dab]T[Dab][Dab][Dab][dL]L[Dab][Dab]T; disulfide 1-10; lactam 15-C)	1	0.5	0.125	0.25	8	0.5	1	0.5
CC(C)C[C@@H]1NC(=O)[C@@H](CC(C)C)NC(=O)[C@H](CCN)NC(=O)[C@@H](NC(=O)[C@H](CCN)NC(=O)[C@@H](CCN)NC(=O)[C@@H](NC(=O)[C@H](CCCN)NC(=O)[C@@H]2CSSC[C@H](NC(=O)[C@@H](N)Cc3c[nH]c4ccccc34)C(=O)N[C@@H](C(C)C)C(=O)NCC(=O)N[C@@H](CO)C(=O)N3CCC[C@@H]3C(=O)N3CCC[C@H]3C(=O)N[C@@H](C(C)C)C(=O)N[C@@H](CN)C(=O)N[C@@H](Cc3ccc(O)cc3)C(=O)N2)[C@@H](C)O)CCNC(=O)[C@H]([C@@H](C)O)NC(=O)[C@H](CCN)NC(=O)[C@H](CCN)NC1=O [Ex. 136] (H-WCVGS[dP]PV[Dap]YC[Orn]T[dDab][Dab][Dab][Dab][dL]L[Dab][Dab]T; disulfide 2-11; lactam 16-C)	<1	1	0.5	1	4	0.25	0.5	0.25
CC(=O)N[C@@H](Cc1c[nH]c2ccccc12)C(=O)N[C@H]1CSSC[C@@H](C(=O)N[C@@H](CCCN)C(=O)N[C@H](CCN)C(=O)N[C@@H](CCN)C(=O)N[C@@H](CCN)C(=O)N[C@H]2CCNC(=O)[C@H]([C@@H](C)O)NC(=O)[C@H](CCN)NC(=O)[C@H](CCN)NC(=O)[C@H](CC(C)C)NC(=O)[C@@H](Cc3ccccc3)NC(=O)[C@H](CCN)NC2=O)NC(=O)[C@H](Cc2ccc(O)cc2)NC(=O)[C@H](CN)NC(=O)[C@H](Cc2ccccc2)NC(=O)[C@H](Cc2ccccc2)NC(=O)[C@H]2CCCN2C(=O)[C@H](CO)NC(=O)[C@H](C)NC(=O)[C@H](C(C)(C)C)NC1=O [Ex. 137] (Ac-WC[Tle]AS[dP]FF[Dap]YC[Orn][dDab][Dab][Dab][Dab][Dab][dF]L[Dab][Dab]T; disulfide 2-11; lactam 16-C)	4	0.5	0.25	0.5	0.5	1	0.5	0.5
CC(=O)N[C@@H](Cc1c[nH]c2ccccc12)C(=O)N[C@H]1CSSC[C@@H](C(=O)N[C@@H](CCCN)C(=O)N[C@H](C(=O)N[C@@H](CCN)C(=O)N[C@@H](CCN)C(=O)N[C@H]2CCNC(=O)[C@H]([C@@H](C)O)NC(=O)[C@H](CCN)NC(=O)[C@H](CCN)NC(=O)[C@H](CC(C)C)NC(=O)[C@@H](Cc3ccccc3)NC(=O)[C@H](CCN)NC2=O)[C@@H](C)O)NC(=O)[C@H](Cc2ccc(O)cc2)NC(=O)[C@H](Cc2c[nH]cn2)NC(=O)[C@H](Cc2c[nH]c3ccccc23)NC(=O)[C@@H]2CCCN2C(=O)[C@H]2CCCN2C(=O)[C@H](CO)NC(=O)[C@H](C)NC(=O)[C@H](C(C)(C)C)NC1=O [Ex. 138] (Ac-WC[Tle]AS[dP]PWHYC[Orn]T[Dab][Dab][Dab][Dab][dF]L[Dab][Dab]T; disulfide 2-11; lactam 16-C)	3	0.5	0.25	0.5	2	4	4	1
CC(=O)N[C@@H](Cc1c[nH]c2ccccc12)C(=O)N[C@H]1CSSC[C@@H](C(=O)N[C@@H](CCCN)C(=O)N[C@H](C(=O)N[C@@H](CCN)C(=O)N[C@@H](CCN)C(=O)N[C@H]2CCNC(=O)[C@H]([C@@H](C)O)NC(=O)[C@H](CCN)NC(=O)[C@H](CCN)NC(=O)[C@H](CC(C)C)NC(=O)[C@@H](Cc3ccccc3)NC(=O)[C@H](CCN)NC2=O)[C@@H](C)O)NC(=O)[C@H](CC2CCCCC2)NC(=O)[C@H](CNC(C)C)NC(=O)[C@H](Cc2c[nH]c3ccccc23)NC(=O)[C@@H]2CCCN2C(=O)[C@H]2CCCN2C(=O)[C@H](CO)NC(=O)[C@H](C)NC(=O)[C@H](C(C)(C)C)NC1=O [Ex. 139] (Ac-WC[Tle]AS[dP]PW[X1][Cha]C[Orn]T[Dab][Dab][Dab][Dab][dF]L[Dab][Dab]T; disulfide 2-11; lactam 16-C)	4	2	2	1	4	2	1	2
CC(C)C[C@@H]1NC(=O)[C@@H](CC(C)C)NC(=O)[C@H](CCN)NC(=O)[C@@H](NC(=O)[C@H](CCN)NC(=O)[C@@H](NC(=O)[C@H](CCN)NC(=O)CN(C)C(=O)[C@@H]2CSSC[C@H](NC(=O)[C@@H](N)Cc3c[nH]c4ccccc34)C(=O)N[C@@H](C(C)(C)C)C(=O)N[C@@H](Cc3ccc(O)cc3)C(=O)N[C@@H](CO)C(=O)N3CCC[C@@H]3C(=O)N3CCC[C@H]3C(=O)N[C@@H](CC(C)C)C(=O)N[C@@H](CN)C(=O)N[C@@H](Cc3ccc(O)cc3)C(=O)N2)[C@@H](C)O)CCNC(=O)[C@H]([C@@H](C)O)NC(=O)[C@H](CCN)NC(=O)[C@H](CCN)NC1=O [Ex. 140] (H-WC[Tle]YS[dP]PL[Dap]YC[Sar][Dab]T[Dab][Dab][Dab][dL]L[Dab][Dab]T; disulfide 2-11; lactam 16-C)	<1	0.0625	0.0625	0.125	1	0.5	0.125	0.125
CCCC[C@@H]1NC(=O)[C@@H]2CCCN2C(=O)[C@H]2CCCN2C(=O)[C@H](C)NC(=O)[C@H](CO)NC(=O)[C@H](C(C)C)NC(=O)[C@@H](NC(=O)[C@@H](N)Cc2c[nH]c3ccccc23)CSSC[C@@H](C(=O)N(C)CC(=O)N[C@@H](CCN)C(=O)N[C@H](C(=O)N[C@@H](CCN)C(=O)N[C@H]2CCNC(=O)[C@H]([C@@H](C)O)NC(=O)[C@H](CCN)NC(=O)[C@H](CCN)NC(=O)[C@H](CC(C)C)NC(=O)[C@@H](CC(C)C)NC(=O)[C@H](CCN)NC2=O)[C@@H](C)O)NC(=O)[C@H](Cc2ccc(O)cc2)NC(=O)[C@H](CN)NC1=O [Ex. 141] (H-WCVSA[dP]P[Nle][Dap]YC[Sar][Dab]T[Dab][Dab][Dab][dL]L[Dab][Dab]T; disulfide 2-11; lactam 16-C)	<1	0.125	0.0625	0.125	2	2	0.125	0.125
CC(=O)N[C@@H](Cc1c[nH]c2ccccc12)C(=O)N[C@H]1CSSC[C@@H](C(=O)N[C@@H](CCCN)C(=O)N[C@H](C(=O)N[C@@H](CCN)C(=O)N[C@@H](CCN)C(=O)N[C@H]2CCNC(=O)[C@H]([C@@H](C)O)NC(=O)[C@H](CCN)NC(=O)[C@H](CCN)NC(=O)[C@H](CC(C)C)NC(=O)[C@@H](Cc3ccccc3)NC(=O)[C@H](CCN)NC2=O)[C@@H](C)O)NC(=O)[C@H](Cc2ccc(O)cc2)NC(=O)[C@H](CO)NC(=O)[C@H](CC(C)C)NC(=O)[C@@H]2CCCN2C(=O)[C@H]2CCCN2C(=O)[C@H](CN)NC(=O)[C@H](C)NC(=O)[C@H](C(C)(C)C)NC1=O [Ex. 142] (Ac-WC[Tle]A[Dap][dP]PLSYC[Orn]T[Dab][Dab][Dab][Dab][dF]L[Dab][Dab]T; disulfide 2-11; lactam 16-C)	<1	0.5	0.5	0.25	1	0.25	0.25	0.125
